Assay results reported in patent publication US9078864B2, “Agonists for antimicrobial peptide systems” (priority 2008, dated 2015).
Entries after “also recorded” stand apart in the source; their conditions may differ.

Experiments:
hBD-1 mRNA = hBD-1 mRNA expression in VA10 cells, real time RT-PCR; type: cell-based, human; settings: 4 mM, 24 hours, compared with CAMP induction
Protocol: FIG. 11: Induction of hBD-1 mRNA expression by PBA. VA10 cells were stimulated with 4 mM of PBA or solvent alone (Control) for 24 hours. hBD-1 mRNA levels were determined by real time RT-PCR, CAMP induction shown for comparison. Individual samples were normalized to total RNA input. Results were normalized to expression in control samples where controls were given the arbitrary value of one. Data is normalized to control and plotted as mean+SE from at least three independent experiments.
CAMP is not the only antimicrobial defense gene that is induced by PBA.

[1] = system: CAMP mRNA in U937 (Human leukemic monocyte lymphoma cell line); experiment: CAMP gene expression by PBA in U937 cells; type: cell-based; settings: 4 mM, 8, 24 and 48 hours
Protocol: (§1) FIG. 3: Induction of CAMP gene mRNA expression by PBA. A) VA10 cells were stimulated with the indicated concentrations of PBA or solvent (Control) for 24 hours. B) VA10 cells were stimulated with 4 mM PBA or treated with solvent alone and harvested after the indicated period of time. C) A498, HT-29 and U937 cells were stimulated with 4 mM PBA or solvent only and harvested after the indicated period of time. CAMP mRNA levels were determined by real time RT-PCR. Individual samples were normalized to total RNA input. Results were normalized to expression in control samples where controls were given the arbitrary value of one. The normalized data is plotted as mean+SE from at least three independent experiments.
(§2) In order to investigate the effect of PBA on other cell lines, HT-29 (Human colonic adenocarcinoma cell line), […] (Human renal carcinoma cell line) and U937 (Human leukemic monocyte lymphoma cell line) were stimulated with 4 mM PBA for 8, 24 and 48 hours. Total RNA was isolated from the cells and CAMP mRNA expression levels analyzed by real time RT-PCR.

VDR co-activator genes = experiment: VDR co-activator mRNA levels in VA10 cells, real time RT-PCR; type: cell-based, human; settings: 4 mM, 24 hours
Protocol: VA10 cells were stimulated with 4 mM of PBA or solvent alone (Control) for 24 hours. mRNA levels of the respective VDR co-activators were determined by real time RT-PCR. Individual samples were normalized to total RNA input. Results were normalized to expression in control samples where controls were given the arbitrary value of one. Data is normalized to control and plotted as mean+SE from three independent experiments.
Hypothesizing that the synergistic effect between PBA and 1,25(OH)2D3 was due to an induction of VDR co-activator genes by PBA, we analyzed the effect of PBA on mRNA levels of several known VDR co-activator genes in VA10. […] These co-activators are therefore not involved in the PBA-induced effects on gene expression.

[2] = system: acetylation of histone H3 and H4 at the CAMP gene proximal promoter; experiment: Histone H3 and H4 acetylation at the CAMP gene promoter, quantitative ChIP in VA10 cells; type: cell-based, human; settings: 4 mM, 24 hours, listed as PBA
Protocol: FIG. 9: VA10 cells were stimulated with 4 mM of PBA or solvent alone (Control) for 24 hours. Acetylation of histone H3 and H4 was analyzed by quantitative ChIP using antibodies against the respective acetylated histones. Results were normalized to normal rabbit IgG and total input and plotted as fold precipitation over IgG. Normalized data is plotted as mean+SE from independent experiments (n=3).
The effect of PBA on acetylation of histone H3 and H4 by quantitative chromatin immunoprecipitation was assessed.

[3] = 528 mg/day to 1.12 g/day, 2-6 weeks, adult IBD patients; cited from earlier work
[4] = system: CAMP gene, encoding LL-37; experiment: CAMP (LL-37) mRNA expression in VA10 lung epithelial cells, real time RT-PCR; type: cell-based, human
Protocol: LL-37 expression in lung epithelial cells treated with different agents Lung epithelial cells (VA 10) were grown to confluency under standard conditions and the agents to be tested added at the indicated concentrations (see below). mRNA was isolated 24 hours after treatment and measured by real time reverse transcription PCR.
Six-well plates were seeded with 1.0×10^6 cells per well and grown for two days. Medium was then exchanged and different wells were left untreated, supplemented with 2 mM sodium butyrate or 2 mM sodium 4-phenylbutyrate. The cells were incubated for 48 h and total RNA was prepared using the RNEasy kit (Qiagen). Total RNA concentrations were measured using the Quant-iT RiboGreen RNA assay kit (Invitrogen). Superscript III first-strand synthesis system (Invitrogen) was used to synthesize cDNA using random primers according to the protocol of the manufacturer. […] Results were normalized to total RNA quantity, presented as relative fold induction of untreated control cells.
Total RNA was isolated from the cells and CAMP mRNA expression levels analyzed by real time RT-PCR.

[5] = system: CAMP mRNA in HT-29 (Human colonic adenocarcinoma cell line); experiment: CAMP gene expression by PBA in HT-29 cells; type: cell-based; settings: 4 mM, 8, 24 and 48 hours
Protocol: as §1, §2

[6] = system: CAMP mRNA in A497 (Human renal carcinoma cell line); experiment: CAMP gene expression by PBA in A497 cells; type: cell-based; settings: 4 mM, 8, 24 and 48 hours
Protocol: as §1, §2

shigellosis = settings: patients with shigellosis; unit not given; cited from earlier work

SMILES | hBD-1 mRNA expression (hBD-1 mRNA) | CAMP mRNA expression [1] | mRNA levels of VDR co-activator genes (VDR co-activator genes) | histone H3 and H4 acetylation at the CAMP gene proximal promoter [2] | safety of topical (enema) dosing [3] | dose dependence of response at higher concentrations ([4]; 8 mM, earlier experiments, results not shown) | LL-37 mRNA expression (fold-induction of CAMP mRNA) ([4]; VA10 cells, 2 mM, 24 hours, compared with sodium butyrate 2 mM and vitamin D3 100 nM) | time and dose dependence of CAMP mRNA expression ([4]; VA10 cells, 4 mM over different time points, different concentrations for 24 hours) | CAMP mRNA expression [5] | CAMP mRNA expression [6] | duration of diarrhoea (mean±SD) (shigellosis)
O=C([O-])CCCc1ccccc1.[Na+] [sodium 4-phenylbutyrate] | induced, although at lower level than CAMP | significantly increased | None of the genes were significantly upregulated | No significant differences; also recorded: No significant change | None of these studies reported any adverse effect or reactions | ceased to be dose-dependent | more effective inducer of LL-37 mRNA expression than butyrate or vitamin D | dependent on PBA dose and increased over time | significantly increased | significantly increased | –
CC(C)(C)C(=O)OCOC(=O)[C@@H]1N2C(=O)[C@@H](/N=C/N3CCCCCC3)[C@H]2SC1(C)C [pivmecillinam] | – | – | – | – | – | – | – | – | – | – | 3.2±1.8
